According to patent US20250135006A1, “AMPHIPHILIC TLR7/8 ADJUVANTS AND USES THEREOF” (Pfizer Inc., priority 2023, published 2025):

Assays:
[1] = target: T1, human toll like receptor 8 (hTLR8) (Homo sapiens, UniProt Q9NR97); assay: hTLR8 in-vitro functional assay (HEK-Blue hTLR8 SEAP reporter); assay type: cell-based; details: HEK-Blue hTLR8 cells, overnight incubation
T1 construct: host or cells: HEK293 (HEK-Blue hTLR8)
T1 sequence (Q9NR97 27-1041): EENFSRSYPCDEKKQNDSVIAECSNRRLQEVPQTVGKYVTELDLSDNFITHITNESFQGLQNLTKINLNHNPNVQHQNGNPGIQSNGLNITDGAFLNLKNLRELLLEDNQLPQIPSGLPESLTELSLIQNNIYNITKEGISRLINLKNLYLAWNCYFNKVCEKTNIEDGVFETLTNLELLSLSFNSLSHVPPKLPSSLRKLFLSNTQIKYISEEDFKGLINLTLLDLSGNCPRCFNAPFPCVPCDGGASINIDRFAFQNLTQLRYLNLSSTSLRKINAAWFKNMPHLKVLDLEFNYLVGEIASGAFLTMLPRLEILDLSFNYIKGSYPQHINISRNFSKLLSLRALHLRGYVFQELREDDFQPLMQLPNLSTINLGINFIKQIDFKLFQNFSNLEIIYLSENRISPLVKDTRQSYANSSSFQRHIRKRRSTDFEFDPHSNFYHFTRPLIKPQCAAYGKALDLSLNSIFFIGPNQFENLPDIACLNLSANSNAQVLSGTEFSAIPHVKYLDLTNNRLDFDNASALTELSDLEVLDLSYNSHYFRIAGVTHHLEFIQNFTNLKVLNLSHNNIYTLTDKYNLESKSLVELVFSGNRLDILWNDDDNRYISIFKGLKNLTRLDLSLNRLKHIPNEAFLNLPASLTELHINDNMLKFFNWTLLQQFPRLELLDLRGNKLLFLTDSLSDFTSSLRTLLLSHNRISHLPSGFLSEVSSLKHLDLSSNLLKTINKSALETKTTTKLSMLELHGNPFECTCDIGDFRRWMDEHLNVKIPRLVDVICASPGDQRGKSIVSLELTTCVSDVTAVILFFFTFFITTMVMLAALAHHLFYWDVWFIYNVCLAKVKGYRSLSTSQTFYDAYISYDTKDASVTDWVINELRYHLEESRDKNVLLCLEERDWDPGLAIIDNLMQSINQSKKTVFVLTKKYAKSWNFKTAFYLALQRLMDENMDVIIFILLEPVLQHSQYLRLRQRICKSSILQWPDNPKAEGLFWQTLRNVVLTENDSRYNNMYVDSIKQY

[2] = target: T2, human toll like receptor 7 (hTLR7) (Homo sapiens, UniProt Q9NYK1); assay: hTLR7 in-vitro functional assay (HEK-Blue hTLR7 SEAP reporter); assay type: cell-based; details: HEK-Blue hTLR7 cells, overnight incubation
T2 construct: host or cells: HEK293 (HEK-Blue hTLR7)
T2 sequence (Q9NYK1 27-1049): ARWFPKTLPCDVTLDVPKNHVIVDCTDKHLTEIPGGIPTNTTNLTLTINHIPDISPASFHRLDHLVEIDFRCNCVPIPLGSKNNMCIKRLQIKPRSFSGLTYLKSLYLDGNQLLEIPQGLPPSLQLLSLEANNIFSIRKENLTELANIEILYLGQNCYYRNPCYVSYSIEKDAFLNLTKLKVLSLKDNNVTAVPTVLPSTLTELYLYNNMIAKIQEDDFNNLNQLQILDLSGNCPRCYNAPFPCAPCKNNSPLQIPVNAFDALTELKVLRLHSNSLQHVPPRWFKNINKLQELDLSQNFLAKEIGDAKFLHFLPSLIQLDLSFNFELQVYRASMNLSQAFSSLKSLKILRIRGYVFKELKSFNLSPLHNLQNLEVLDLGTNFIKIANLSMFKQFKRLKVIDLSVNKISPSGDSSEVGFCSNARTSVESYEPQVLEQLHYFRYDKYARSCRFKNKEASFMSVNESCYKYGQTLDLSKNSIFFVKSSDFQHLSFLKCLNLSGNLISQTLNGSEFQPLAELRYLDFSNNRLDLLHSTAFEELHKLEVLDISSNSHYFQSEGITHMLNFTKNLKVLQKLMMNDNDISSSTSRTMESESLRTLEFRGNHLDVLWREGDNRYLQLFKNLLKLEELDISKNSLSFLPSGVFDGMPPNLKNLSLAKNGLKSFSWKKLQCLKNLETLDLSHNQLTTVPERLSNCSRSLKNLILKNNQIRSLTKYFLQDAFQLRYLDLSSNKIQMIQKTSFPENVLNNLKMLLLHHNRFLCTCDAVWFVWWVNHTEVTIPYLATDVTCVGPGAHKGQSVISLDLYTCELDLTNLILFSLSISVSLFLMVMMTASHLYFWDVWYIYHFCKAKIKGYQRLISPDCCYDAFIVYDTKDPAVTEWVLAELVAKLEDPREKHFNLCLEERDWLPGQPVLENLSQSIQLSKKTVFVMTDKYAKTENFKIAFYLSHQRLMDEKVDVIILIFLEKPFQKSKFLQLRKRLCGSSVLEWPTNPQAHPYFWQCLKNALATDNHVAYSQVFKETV

Row | Structure (SMILES) | EC50 [1] [nM] | EC50 [2] [nM]
1 | CCCCc1nc2c(N)nc3cc(CCCN4CCN(C(=O)CCOCCOCCOCCOCCOCCOCCOCCOCCOCCOCCOCCOCCNC(=O)O[C@H]5CC[C@@]6(C)C(=CC[C@H]7[C@@H]8CC[C@H]([C@H](C)CCCC(C)C)[C@@]8(C)CC[C@@H]76)C5)CC4)ccc3c2n1CC(C)(CO)CO [Compound 20, (20R)-cholest-5-en-3beta-yl {39-[4-(3-{4-amino-2-butyl-1-[3-hydroxy-2-(hydroxymethyl)-2-methylpropyl]-1H-imidazo[4,5-c]quinolin-7-yl}propyl)piperazin-1-yl]-39-oxo-3,6,9,12,15,18,21,24,27,30,33,36-dodecaoxanonatriacontan-1-yl}carbamate] | 21800 | 443
2 | CCCCc1nc2c(N)nc3cc(CCCN4CCN(CCCOCCOCCOCCOCCOCCOCCOCCOCCOCCOCCOCCOCCNC(=O)O[C@H]5CC[C@@]6(C)C(=CC[C@H]7[C@@H]8CC[C@H]([C@H](C)CCCC(C)C)[C@@]8(C)CC[C@@H]76)C5)CC4)ccc3c2n1CC(C)(CO)CO [Compound 21, (20R)-cholest-5-en-3beta-yl {39-[4-(3-{4-amino-2-butyl-1-[3-hydroxy-2-(hydroxymethyl)-2-methylpropyl]-1H-imidazo[4,5-c]quinolin-7-yl}propyl)piperazin-1-yl]-3,6,9,12,15,18,21,24,27,30,33,36-dodecaoxanonatriacontan-1-yl}carbamate] | > 25000 | 533
3 | CCCCc1nc2c(N)nc3cc(CCCN4CCN(Cc5ccc(NC(=O)[C@H](CCCNC(N)=O)NC(=O)[C@@H](NC(=O)COCCOCCNC(=O)O[C@H]6CC[C@@]7(C)C(=CC[C@H]8[C@@H]9CC[C@H]([C@H](C)CCCC(C)C)[C@@]9(C)CC[C@@H]87)C6)C(C)C)cc5)CC4)ccc3c2n1CC(C)(CO)CO [Compound 29, (3beta)-cholest-5-en-3-yl ((6S,9S)-1-amino-6-((4-((4-(3-(4-amino-2-butyl-1-(3-hydroxy-2-(hydroxymethyl)-2-methylpropyl)-1H-imidazo[4,5-c]quinolin-7-yl)propyl)piperazin-1-yl)methyl)phenyl)carbamoyl)-9-isopropyl-1,8,11-trioxo-13,16-dioxa-2,7,10-triazaoctadecan-18-yl)carbamate] | 5030 | 527
4 | CCCCc1nc2c(N)nc3cc(CCCN4CCN(C(=O)OCc5ccc(NC(=O)[C@H](CCCNC(N)=O)NC(=O)[C@@H](NC(=O)COCCOCCNC(=O)O[C@H]6CC[C@@]7(C)C(=CC[C@H]8[C@@H]9CC[C@H]([C@H](C)CCCC(C)C)[C@@]9(C)CC[C@@H]87)C6)C(C)C)cc5)CC4)ccc3c2n1CC(C)(CO)CO [Compound 28, 4-((12S,15S)-1-(((3beta)-cholest-5-en-3-yl)oxy)-12-isopropyl-1,10,13-trioxo-15-(3-ureidopropyl)-5,8-dioxa-2,11,14-triazahexadecan-16-amido)benzyl 4-(3-(4-amino-2-butyl-1-(3-hydroxy-2-(hydroxymethyl)-2-methylpropyl)-1H-imidazo[4,5-c]quinolin-7-yl)propyl)piperazine-1-carboxylate] | 4480 | 1890
5 | CCCCc1nc2c(N)nc3cc(CCCN4CCN(CCCOCCOCCOCCOCCOCCOCCOCCOCCOCCOCCOCCOCCOCCOCCOCCOCCOCCOCCOCCOCCOCCOCCOCCOCCNC(=O)CCOCCOCCOCCOCCNC(=O)O[C@H]5CC[C@@]6(C)C(=CC[C@H]7[C@@H]8CC[C@H]([C@H](C)CCCC(C)C)[C@@]8(C)CC[C@@H]76)C5)CC4)ccc3c2n1CC(C)(CO)CO [Compound 17, (3beta)-cholest-5-en-3-yl {91-[4-(3-{4-amino-2-butyl-1-[3-hydroxy-2-(hydroxymethyl)-2-methylpropyl]-1H-imidazo[4,5-c]quinolin-7-yl}propyl)piperazin-1-yl]-15-oxo-3,6,9,12,19,22,25,28,31,34,37,40,43,46,49,52,55,58,61,64,67,70,73,76,79,82,85,88-octacosaoxa-16-azahennonacont-1-yl}carbamate] | 2610 | 282

Further molecules by falling EC50 [1], results first:

Row | EC50 [1] [nM] | EC50 [2] [nM] | Structure (SMILES)
6 | 19600 | 210 | CCCCc1nc2c(N)nc3cc(CCCN4CCN(C(=O)CCOCCOCCOCCOCCNC(=O)O[C@H]5CC[C@@]6(C)C(=CC[C@H]7[C@@H]8CC[C@H]([C@H](C)CCCC(C)C)[C@@]8(C)CC[C@@H]76)C5)CC4)ccc3c2n1CC(C)(CO)CO [Compound 12, (3beta,20R)-cholest-5-en-3-yl {15-[4-(3-{4-amino-2-butyl-1-[3-hydroxy-2-(hydroxymethyl)-2-methylpropyl]-1H-imidazo[4,5-c]quinolin-7-yl}propyl)piperazin-1-yl]-15-oxo-3,6,9,12-tetraoxapentadec-1-yl}carbamate]
7 | 2970 | 3100 | CCCCc1nc2c(N)nc3cc(CCCN4CCN(Cc5ccc(NC(=O)[C@H](C)NC(=O)[C@@H](NC(=O)COCCOCCNC(=O)O[C@H]6CC[C@@]7(C)C(=CC[C@H]8[C@@H]9CC[C@H]([C@H](C)CCCC(C)C)[C@@]9(C)CC[C@@H]87)C6)C(C)C)cc5)CC4)ccc3c2n1CC(C)(CO)CO [Compound 27, (3beta)-cholest-5-en-3-yl {(2S,5S)-1-((4-((4-(3-(4-amino-2-butyl-1-(3-hydroxy-2-(hydroxymethyl)-2-methylpropyl)-1H-imidazo[4,5-c]quinolin-7-yl)propyl)piperazin-1-yl)methyl)phenyl)amino)-5-isopropyl-2-methyl-1,4,7-trioxo-9,12-dioxa-3,6-diazatetradecan-14-yl}carbamate]
8 | 2300 | 72 | CCOCc1nc2c(N)nc3cc(CCCN4CCN(C(=O)CCOCCOCCOCCOCCOCCOCCOCCOCCOCCOCCOCCOCCOCCOCCOCCOCCOCCOCCOCCOCCOCCOCCOCCOCCNC(=O)CCOCCOCCOCCOCCNC(=O)O[C@H]5CC[C@@]6(C)C(=CC[C@H]7[C@@H]8CC[C@H]([C@H](C)CCCC(C)C)[C@@]8(C)CC[C@@H]76)C5)CC4)ccc3c2n1CC(C)(CO)CO [Compound 5, (3beta)-cholest-5-en-3-yl {91-[4-(3-{4-amino-2-(ethoxymethyl)-1-[3-hydroxy-2-(hydroxymethyl)-2-methylpropyl]-1H-imidazo[4,5-c]quinolin-7-yl}propyl)piperazin-1-yl]-15,91-dioxo-3,6,9,12,19,22,25,28,31,34,37,40,43,46,49,52,55,58,61,64,67,70,73,76,79,82,85,88-octacosaoxa-16-azahennonacont-1-yl}carbamate]
